Tested on: Male Harlan Sprague-Dawley rats
Assay: Arterial blood pressure and heart rate monitoring in rat
Description: All procedures were carried out in accordance with NIH guidelines. Male Harlan Sprague-Dawley rats (225-300 gm) were anesthetized briefly with 1.5% halothane in oxygen for insertion of left femoral arterial and venous cannulae and placement of tracheostomy for mechanical ventilation (using a 16 gauge intravenous catheter, Inste-W, Becton Dickinson, Sandy, Utah). All wounds were infiltrated with 1% lidocaine before incision. Following surgery, the inspired halothane concentration was reduced to 0.7% and rats were paralyzed with 2 mg/kg intravenous pancuronium, followed by a continuous intravenous infusion of pancuronium at 2 mg/kg/hr. Pancuronium was dissolved in normal saline administered at 5 ml/kg/hr. Rats were mechanically ventilated (in a small animal volume controlled ventilator, Harvard Apparatus, Inc., South Natick, Mass.) with a 80/20 air/oxygen mixture, an inspiratory to expiratory ratio of 1:1, and an initial tidal volume of 3.0 ml at a rate of 40 breaths per minute. Ventilation parameters were adjusted to maintain normal arterial blood gases (pH=7.40±0.01, PaCO2=40±2, PaO2=145±10). Arterial blood samples (150 μl) withdrawn from cannula were analyzed for arterial partial pressures of oxygen, carbon dioxide, and pH (Ciba-Coming Model 1304) before administration of drugs, and at the end of each experiment before sacrifice, to ensure animal stability. Arterial blood pressure and rectal temperature were monitored throughout the experiment. […] Rats torsos were wrapped in two heating blankets (Gaymar, Orchid Park, N.Y.) circulating warm water to maintain core temperature at 37-38° C. […]
Regional cortical blood flow was determined by LDF (Perimed, PF2B, Stockholm, Sweden) as described previously (Ayata, et al., 1996, J. Cereb. Blood Flow Metab., 16:539-541). […] All data were collected, stored, and analyzed using MacLab/8 data acquisition and analysis system (ADInstruments, Mountain View, Calif.). Arterial pressure was continuously monitored and the data stored; heart rate was calculated from arterial pressure pulses by the data acquisition software. […]

Compound: COC(=O)[C@H]1[C@@H](OC(=O)c2ccccc2)C[C@@H]2CC[C@H]1N2C [cocaine]
- adverse cardiovascular response (cocaine doses above 5 mg/kg IV): profound hypotension and cardiac arrhythmia
- transient increase in arterial blood pressure (cocaine infusion 0.5 mg/kg): 5-10 mm Hg
